For one experiment, the system named is plasmid pBR322. The experiment in a line: Ethidium bromide assay, DNA-binding effects on plasmid pBR322. Particulars: EtBr-DNA complex, compound 10 μM, 25 °C 30 min; no drug = 100% fluorescence.
Another experiment deals with poly(dA-dT)2. The experiment in a line: Ethidium bromide assay, DNA-binding effects on poly. Particulars: EtBr-DNA complex, compound 10 μM, 25 °C 30 min.
The next experiment addresses T1, recombinant human DHFR (Homo sapiens, UniProt P00374).
T1 sequence (P00374 1-187): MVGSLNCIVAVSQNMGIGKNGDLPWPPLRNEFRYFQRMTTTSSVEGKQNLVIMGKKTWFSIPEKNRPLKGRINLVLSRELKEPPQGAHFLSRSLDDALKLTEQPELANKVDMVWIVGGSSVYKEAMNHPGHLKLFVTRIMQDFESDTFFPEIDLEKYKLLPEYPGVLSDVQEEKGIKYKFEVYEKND
Kind of experiment: Dihydrofolate reductase. Format: biochemical.

In another experiment the test system is T4 coliphage DNA. The experiment in a line: Ethidium bromide assay, DNA-binding effects on T4 coliphage DNA. The note with it: EtBr-DNA complex, compound 10 μM, 25 °C 30 min.
The test system of a further experiment is poly(dG-dC)2. The experiment in a line: Ethidium bromide assay, DNA-binding effects on poly. Particulars: EtBr-DNA complex, compound 10 μM, 25 °C 30 min.
The next experiment relates to calf thymus DNA. Kind of experiment: Ethidium bromide assay, DNA-binding effects on calf thymus DNA. The note with it: EtBr-DNA complex, compound 10 μM, 25 °C 30 min.
For experiment [1], the system named is normal human skin fibroblasts (HSF). The experiment in a line: Normal cytotoxicity evaluation, MTT. Format: cell-based. The note with it: Skin fibroblast, 24 h, read-out: Normal HSF IC50.
In experiment [2] the test system is MCF-7 cells. Kind of experiment: Apoptosis induction, Annexin V-FITC/PI flow cytometry. The format is cell-based, human. The note with it: MCF-7, at IC50, 24 h. (In general: A flow cytometer gives signals particle by particle.)
For experiment [3], the system named is MCF-7 breast cancer cell line. The experiment in a line: In vitro anti-proliferative MTT assay. Format: cell-based, human. The note with it: Homo sapiens, MCF7, 24 h, read-out: MCF-7 IC50. A general note: Formazan colour is commonly taken as a measure of viable cells.
In experiment [4] the test system is MCF-7 cells. The experiment in a line: Wound healing assay. The note with it: MCF-7, at IC50 concentrations. Format: cell-based, human.

Experimental findings from PMC11881662 (Journal of Enzyme Inhibition and Medicinal Chemistry, 2025) are described below.

In brackets after ≈: the same amount, converted by molar mass.

One may read the IC50 as the concentration that inhibits the measured activity by half. Turning to `COc1ccc(-c2csc(N/N=C(/C=C/c3c(Cl)cccc3Cl)C(=O)O)n2)cc1` [Compound 14, (2Z,3E)-4-(2,6-dichlorophenyl)-2-(2-(4-(4-methoxyphenyl)thiazol-2-yl)hydrazinylidene)but-3-enoic acid], in the experiment on plasmid pBR322, the “Decrease in fluorescence (%) pBr322” value came to 51.61%. Further, the “Decrease in fluorescence (%) Poly (dA-dT)2” value (shortened to “Decrease … (%) Poly (dA-dT)2”) in the experiment on poly(dA-dT)2 stood at 67.21%. For the same molecule, the half-maximal inhibitory concentration (IC50) on recombinant human DHFR is 31.02 ± 0.04 µM. Besides, the “Decrease in fluorescence (%) T4 DNA” value in the experiment on T4 coliphage DNA came to 40.85%. For the same molecule, the “Decrease in fluorescence (%) Poly (dG-dC)2” value (“Decrease … (%) Poly (dG-dC)2” below) with poly(dG-dC)2 came to 61.25%. In the experiment with calf thymus DNA, the “Decrease in fluorescence (%) Calf Thymus DNA” value (from here on “Decrease … (%) Calf Thymus DNA”) is on record as 58.95%.
`O=C(O)C(/C=C/c1c(Cl)cccc1Cl)=N\Nc1nc(-c2ccc(F)cc2)cs1` [Compound 15, (2Z,3E)-4-(2,6-dichlorophenyl)-2-(2-(4-(4-fluorophenyl)thiazol-2-yl)hydrazinylidene)but-3-enoic acid]: in the experiment with plasmid pBR322, the “Decrease in fluorescence (%) pBr322” value amounted to 70.97%. Moreover, the “Decrease … (%) Poly (dA-dT)2” value in the experiment with poly(dA-dT)2 came to 55.27%. Besides, the IC50 on recombinant human DHFR was 62.31 ± 0.02 µM. Further, in the experiment on T4 coliphage DNA, the “Decrease in fluorescence (%) T4 DNA” value was 39.02%. Moreover, the “Decrease … (%) Poly (dG-dC)2” value with poly(dG-dC)2 came to 57.81%. In the experiment on calf thymus DNA, the “Decrease … (%) Calf Thymus DNA” value came out at 72.10%.
For the molecule `O=C(O)C(/C=C/c1c(Cl)cccc1Cl)=N\Nc1nc(-c2ccc(Cl)cc2)cs1` [Compound 16, (2Z,3E)-4-(2,6-dichlorophenyl)-2-(2-(4-(4-chlorophenyl)thiazol-2-yl)hydrazinylidene)but-3-enoic acid], the “Decrease in fluorescence (%) pBr322” value in the experiment on plasmid pBR322 was 64.16%. For the same molecule, in the experiment with poly(dA-dT)2, the “Decrease … (%) Poly (dA-dT)2” value is 51.29%. In addition, the IC50 at recombinant human DHFR worked out at 53.18 ± 0.01 µM. Further, in the experiment with T4 coliphage DNA, the “Decrease in fluorescence (%) T4 DNA” value was 52.44%. For the same molecule, in the experiment with poly(dG-dC)2, the “Decrease … (%) Poly (dG-dC)2” value is 63.12%. Further, the “Decrease … (%) Calf Thymus DNA” value with calf thymus DNA is 50.53%.
Turning to `O=C(O)C(/C=C/c1c(Cl)cccc1Cl)=N\Nc1nc(-c2ccc(Br)cc2)cs1` [Compound 17, (2Z,3E)-4-(2,6-dichlorophenyl)-2-(2-(4-(4-bromophenyl)thiazol-2-yl)hydrazinylidene)but-3-enoic acid], the “Decrease in fluorescence (%) pBr322” value in the experiment with plasmid pBR322 is reported as 61.65%. In addition, the “Decrease … (%) Poly (dA-dT)2” value in the experiment on poly(dA-dT)2 turned out to be 42.62%. In addition, the IC50 at recombinant human DHFR came out at 60.28 ± 0.02 µM. Also, the “Decrease in fluorescence (%) T4 DNA” value with T4 coliphage DNA was 35.36%. The “Decrease … (%) Poly (dG-dC)2” value in the experiment on poly(dG-dC)2 is reported as 63.44%. Further, in the experiment with calf thymus DNA, the “Decrease … (%) Calf Thymus DNA” value is given as 54.21%.
In the case of `O=C(O)C(/C=C/c1c(Cl)cccc1Cl)=N\Nc1nc(-c2ccc([N+](=O)[O-])cc2)cs1` [Compound 18, (2Z,3E)-4-(2,6-dichlorophenyl)-2-(2-(4-(4-nitrophenyl)thiazol-2-yl)hydrazinylidene)but-3-enoic acid], the “Decrease in fluorescence (%) pBr322” value in the experiment on plasmid pBR322 is on record as 55.56%. In the experiment with poly(dA-dT)2, the “Decrease … (%) Poly (dA-dT)2” value is reported as 37.00%. Further, the IC50 at recombinant human DHFR worked out at 63.18 ± 0.01 µM. In the experiment with T4 coliphage DNA, the “Decrease in fluorescence (%) T4 DNA” value turned out to be 45.12%. Moreover, the “Decrease … (%) Poly (dG-dC)2” value in the experiment on poly(dG-dC)2 was 62.50%. The “Decrease … (%) Calf Thymus DNA” value in the experiment with calf thymus DNA stood at 76.84%.
On to `CN(Cc1cnc2nc(N)nc(N)c2n1)c1ccc(C(=O)N[C@@H](CCC(=O)O)C(=O)O)cc1` [MTX, Methotrexate, reference compound], for which the IC50 was 126 µg/mL (≈ 276 µM) in experiment [1] and 56.9 µg/mL (≈ 125 µM) in experiment [3]. Further, the “Decrease in fluorescence (%) pBr322” value in the experiment with plasmid pBR322 came out at 100%. The same molecule had a Percentage of necrosis in the experiment with MCF-7 cells [2] of 6.50%. The “% Wound closure after 24 h treatment” value in the experiment on MCF-7 cells [4] worked out at 45.46%.
